In patent US10308643B2, “Heterocyclic compound” (Takeda Pharmaceutical Company Limited, priority 2015, dated 2019):

Assays:
Format in all cases: biochemical
HDAC6 enzyme = target: T1, HDAC6 enzyme (Homo sapiens, UniProt Q9UBN7); assay: HDAC1/6 Enzyme Inhibitory Assay (HDAC-Glo I/II Assay kit), HDAC6; conditions: 1 μM test compound, wells without enzyme = 100% inhibition; for inhibition at 1 µM: read-out: HDAC6 inhibitory rate (%) (1 μM)
T1 construct: transducing full length HDAC1 and HDAC6 genes into Sf-9 insect cells; GST; purchased SignalChem; host or cells: Sf-9 insect cells
T1 sequence (Q9UBN7 1-1215): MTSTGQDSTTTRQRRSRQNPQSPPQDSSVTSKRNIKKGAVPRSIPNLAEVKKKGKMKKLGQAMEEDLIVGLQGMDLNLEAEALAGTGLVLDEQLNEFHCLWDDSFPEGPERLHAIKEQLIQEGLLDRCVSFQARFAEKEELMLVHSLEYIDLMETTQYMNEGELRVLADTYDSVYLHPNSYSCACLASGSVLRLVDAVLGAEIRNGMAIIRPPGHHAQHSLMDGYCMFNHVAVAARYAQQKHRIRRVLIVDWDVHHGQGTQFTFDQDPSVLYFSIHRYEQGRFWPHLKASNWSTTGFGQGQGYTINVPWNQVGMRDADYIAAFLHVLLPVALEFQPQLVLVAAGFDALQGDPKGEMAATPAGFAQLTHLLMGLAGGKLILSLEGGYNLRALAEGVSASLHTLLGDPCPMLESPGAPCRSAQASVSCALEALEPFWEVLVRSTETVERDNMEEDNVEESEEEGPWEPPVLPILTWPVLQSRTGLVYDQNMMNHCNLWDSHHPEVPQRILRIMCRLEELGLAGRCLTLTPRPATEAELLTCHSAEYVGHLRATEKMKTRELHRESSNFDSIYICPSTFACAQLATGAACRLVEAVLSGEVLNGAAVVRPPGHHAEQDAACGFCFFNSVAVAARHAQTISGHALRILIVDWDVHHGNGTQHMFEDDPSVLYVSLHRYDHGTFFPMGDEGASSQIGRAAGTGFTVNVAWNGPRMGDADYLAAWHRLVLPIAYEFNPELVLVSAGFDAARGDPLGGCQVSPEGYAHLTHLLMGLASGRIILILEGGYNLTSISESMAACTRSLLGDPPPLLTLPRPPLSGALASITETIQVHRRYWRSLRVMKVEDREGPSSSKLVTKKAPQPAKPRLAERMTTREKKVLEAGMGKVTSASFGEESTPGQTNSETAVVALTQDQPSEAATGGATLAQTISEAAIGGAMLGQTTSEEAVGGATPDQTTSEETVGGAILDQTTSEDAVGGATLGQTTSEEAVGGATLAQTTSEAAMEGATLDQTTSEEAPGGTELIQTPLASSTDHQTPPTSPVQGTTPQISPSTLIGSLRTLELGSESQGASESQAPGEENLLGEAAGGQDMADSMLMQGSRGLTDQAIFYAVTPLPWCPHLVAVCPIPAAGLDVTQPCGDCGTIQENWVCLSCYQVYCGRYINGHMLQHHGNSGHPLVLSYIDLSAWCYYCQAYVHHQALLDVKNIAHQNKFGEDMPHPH
Description: (§1) HDAC1/6 Enzyme Inhibitory Assay
(§2) HDAC1 enzyme and HDAC6 enzyme each prepared by transducing full length HDAC1 and HDAC6 genes into Sf-9 insect cells and purifying by GST affinity column were purchased from SignalChem. Using these enzymes, HDAC1 and/or HDAC6 enzyme inhibitory activities of the compound of the present invention were evaluated. Enzymes were used after preserved at −70° C. HDAC1 or HDAC6 enzyme inhibitory activity of the compound of the present invention was measured using HDAC-Glo™ I/II Assay kit (Promega) according to the following experimental method. The test compound diluted with assay buffer (24 mM Tris-HCl (pH 7.5), 1 mM MgCl2, 0.35 mM KCl, 135 mM NaCl, 0.6 mM Glutathione, 0.01% Tween-20) was added to a 384-well plate by each 2 μL. Then, HDAC1 or HDAC6 enzyme solution diluted with assay buffer was added thereto by each 4 μL, and the plate was incubated at room temperature for 60 min. After incubated, HDAC substrate-Developer solution prepared according to Promega protocol attached to the assay kit was added to the 384-well plate by each 2 μL, and the enzyme reaction was started. After reacting at room temperature for 20 min, luminescence level was measured using plate reader Envision (PerkinElmer). The inhibitory activity of each compound was calculated as a relative activity value when luminescence level in wells without enzyme is considered as 100% inhibition.

HDAC1 enzyme = target: T2, HDAC1 enzyme (Homo sapiens, UniProt Q13547); assay: HDAC1/6 Enzyme Inhibitory Assay (HDAC-Glo I/II Assay kit), HDAC1; conditions: 1 μM test compound, wells without enzyme = 100% inhibition; for inhibition at 1 µM: read-out: HDAC1 inhibitory rate (%) (1 μM)
T2 construct: transducing full length HDAC1 and HDAC6 genes into Sf-9 insect cells; GST; purchased SignalChem; host or cells: Sf-9 insect cells
T2 sequence (Q13547 whole entry): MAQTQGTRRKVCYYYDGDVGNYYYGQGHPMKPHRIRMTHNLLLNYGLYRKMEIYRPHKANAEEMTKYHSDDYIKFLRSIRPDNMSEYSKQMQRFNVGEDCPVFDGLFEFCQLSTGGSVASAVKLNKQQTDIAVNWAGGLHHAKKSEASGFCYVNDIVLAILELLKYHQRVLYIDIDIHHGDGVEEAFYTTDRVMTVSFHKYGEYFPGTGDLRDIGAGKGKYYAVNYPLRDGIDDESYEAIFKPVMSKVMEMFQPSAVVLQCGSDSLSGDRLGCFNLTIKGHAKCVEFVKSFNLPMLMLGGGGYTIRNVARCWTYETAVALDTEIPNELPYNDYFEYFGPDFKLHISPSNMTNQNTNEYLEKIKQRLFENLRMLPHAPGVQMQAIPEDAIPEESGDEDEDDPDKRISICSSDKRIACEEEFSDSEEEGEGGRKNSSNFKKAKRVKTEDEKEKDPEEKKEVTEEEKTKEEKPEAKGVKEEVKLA
Description: as §1, §2

HDAC9 enzyme = target: T3, HDAC9 enzyme (Homo sapiens, UniProt Q9UKV0); assay: HDAC9 Enzyme Inhibitory Assay (HDAC-Glo class IIa); conditions: 1 μM test compound, wells without enzyme = 100% inhibition; for inhibition at 1 µM: read-out: HDAC9 inhibitory rate (%) (1 μM)
T3 construct: transducing full length HDAC9 gene into Sf-9 insect cells; made in house; host or cells: Sf-9 insect cells
T3 sequence (Q9UKV0 whole entry, species assumed): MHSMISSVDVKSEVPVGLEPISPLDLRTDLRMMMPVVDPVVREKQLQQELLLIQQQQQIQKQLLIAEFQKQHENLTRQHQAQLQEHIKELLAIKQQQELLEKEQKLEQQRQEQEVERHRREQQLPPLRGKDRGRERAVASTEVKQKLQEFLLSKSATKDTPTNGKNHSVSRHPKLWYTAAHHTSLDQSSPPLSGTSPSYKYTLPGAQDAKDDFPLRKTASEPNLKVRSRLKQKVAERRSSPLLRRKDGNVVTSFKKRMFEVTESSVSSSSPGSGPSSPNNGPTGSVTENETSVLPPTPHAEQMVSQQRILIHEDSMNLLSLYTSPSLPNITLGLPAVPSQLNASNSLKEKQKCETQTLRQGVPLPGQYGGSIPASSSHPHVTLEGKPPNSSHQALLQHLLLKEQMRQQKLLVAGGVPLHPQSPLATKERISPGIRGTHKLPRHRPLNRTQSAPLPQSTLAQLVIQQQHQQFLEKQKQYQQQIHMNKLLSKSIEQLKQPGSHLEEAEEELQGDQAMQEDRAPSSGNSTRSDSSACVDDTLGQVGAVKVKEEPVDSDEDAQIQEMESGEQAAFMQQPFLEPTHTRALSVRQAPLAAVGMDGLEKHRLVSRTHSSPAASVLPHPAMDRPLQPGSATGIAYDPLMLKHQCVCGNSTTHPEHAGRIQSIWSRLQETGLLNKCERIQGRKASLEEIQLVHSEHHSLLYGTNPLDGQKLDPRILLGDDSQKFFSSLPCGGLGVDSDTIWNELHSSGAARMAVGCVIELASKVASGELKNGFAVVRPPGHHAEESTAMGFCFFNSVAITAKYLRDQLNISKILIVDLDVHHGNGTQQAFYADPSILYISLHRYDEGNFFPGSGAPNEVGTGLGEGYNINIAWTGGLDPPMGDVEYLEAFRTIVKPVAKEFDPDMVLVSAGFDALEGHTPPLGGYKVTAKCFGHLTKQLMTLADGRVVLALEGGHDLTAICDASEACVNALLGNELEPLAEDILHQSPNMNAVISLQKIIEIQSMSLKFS
Description: HDAC9 Enzyme Inhibitory Assay
Enzyme was prepared by transducing full length HDAC9 gene into Sf-9 insect cells and purifying by Ni-NTA affinity column, and HDAC9 enzyme inhibitory activity was evaluated. Enzymes were used after preserved at −70° C. HDAC9 enzyme inhibitory activity of the test compound was measured using HDAC-Glo class IIa (Promega) according to the following experimental method. The test compound diluted with assay buffer (24 mM Tris-HCl (pH 7.5), 1 mM MgCl2, 0.35 mM KCl, 135 mM NaCl, 0.6 mM Glutathione, 0.01% Tween-20) was added to a 384-well plate by each 2 μL. Then, HDAC9 enzyme solution diluted with assay buffer was added thereto by each 2 μL, and the plate was incubated at room temperature for 60 min. After incubated, HDAC substrate-Developer solution prepared according to Promega protocol was added to the 384-well plate by each 4 μL, and the enzyme reaction was started. After reacting at room temperature for 20 min, luminescence level was measured using plate reader Envision (PerkinElmer). The inhibitory activity of each compound was calculated as a relative activity value when luminescence level in wells without enzyme is considered as 100% inhibition.

Compound | HDAC6 inhibitory rate (%) (1 μM) (HDAC6 enzyme) | HDAC1 inhibitory rate (%) (1 μM) (HDAC1 enzyme; 1 µM) | HDAC9 inhibitory rate (%) (1 μM) (HDAC9 enzyme; 1 µM) | inhibition at 1 µM (HDAC6 enzyme) [%] | inhibition at 1 µM (HDAC1 enzyme) [%] | inhibition at 1 µM (HDAC9 enzyme) [%]
CC1(C)CC1C(=O)N[C@@H]1CCCC[C@H]1N1Cc2ccc(-c3noc(C(F)(F)F)n3)cc2C1=O (stereo partly drawn) [Example 107, 2,2-dimethyl-N-((1R,2R)-2-(1-oxo-6-(5-(trifluoromethyl)-1,2,4-oxadiazol-3-yl)-1,3-dihydro-2H-isoindol-2-yl)cyclohexyl) cyclopropanecarboxamide] |  |  |  | 99 | 11 | 57
O=C1NCCC1C(=O)N[C@@H]1CCCC[C@H]1N1Cc2ccc(-c3noc(C(F)(F)F)n3)cc2C1=O (stereo partly drawn) [Example 108, 2-oxo-N-((1Rr2R)-2-(1-oxo-6-(5-(trifluoromethyl)-l ,2,4-oxadiazol-3-yl)-1,3-dihydro-2H-isoindol-2-yl)cyclohexyl)pyrrolidine-3-carboxamide] |  |  |  | 97 | 2 | 35
O=C(N[C@H]1CCOC[C@@H]1N1Cc2ccc(-c3noc(C(F)(F)F)n3)cc2C1=O)[C@@H]1CCOC1 [Example 209, (3R)-N-((3R,4S)-3-(1-oxo-6-(5-(trifluoromethyl)-1,2,4-oxadiazol-3-yl)-1,3-dihydro-2H-isoindol-2-yl)tetrahydro-2H-pyran-4-yl)tetrahydrofuran-3-carboxamide] |  |  |  | 48 | 13 | 51
O=C1CC[C@@H](C(=O)N[C@@H]2CCCC[C@H]2N2Cc3ccc(-c4noc(C(F)(F)F)n4)cc3C2=O)N1 [Example 128, 5-oxo-N-((1R,2R)-2-(1-oxo-6-(5-(trifluoromethyl)-1,2,4-oxadiazol-3-yl)-1,3-dihydro-2H-isoindol-2-yl)cyclohexyl)-L-prolinamide] |  |  |  | 92 | -3 | 39
CC(CO)(CCl)C(=O)N[C@@H]1CCCC[C@H]1N1Cc2ccc(-c3noc(C(F)(F)F)n3)cc2C1=O (relative stereo) [Example 203, 3-chloro-2-(hydroxymethyl)-2-methyl-N-(trans-2-(1-oxo-6-(5-(trifluoromethyl)-1,2,4-oxadiazol-3-yl)-1,3-dihydro-2H-isoindol-2-yl)cyclohexyl)propanamide] |  |  |  | 100 | 8 | 69
O=C(N[C@H]1CCOC[C@@H]1N1Cc2ccc(-c3noc(C(F)(F)F)n3)cc2C1=O)[C@H]1CCOC1 [Example 210, (3S)-N-((3R,4S)-3-(1-oxo-6-(5-(trifluoromethyl)-1,2,4-oxadiazol-3-yl)-1,3-dihydro-2H-isoindol-2-yl)tetrahydro-2H-pyran-4-yl)tetrahydrofuran-3-carboxamide] |  |  |  | 55 | 10 | 56
O=C(N[C@@H]1CCCC[C@H]1N1Cc2ccc(-c3noc(C(F)(F)F)n3)cc2C1=O)N1CC2(COC2)C1 [Example 161, N-((1R,2R)-2-(1-oxo-6-(5-(trifluoromethyl)-1,2,4-oxadiazol-3-yl)-1,3-dihydro-2H-isoindol-2-yl)cyclohexyl)-2-oxa-6-azaspiro[3.3]heptane-6-carboxamide] |  |  |  | 76 | 1 | 20
O=C1c2cc(-c3noc(C(F)(F)F)n3)ccc2CN1[C@@H]1CC[C@@H]1Cc1ccccc1 (relative stereo) [Example 60, 2-(cis-2-benzylcyclobutyl)-6-(5-(trifluoromethyl)-1,2,4-oxadiazol-3-yl)isoindolin-1-one] |  |  |  | 92 | 37 | 77
CC(C)(C)OC(=O)N1CC[C@@H](N2Cc3ccc(-c4noc(C(F)(F)F)n4)cc3C2=O)[C@H](c2ccccc2)C1 [Example 13, tert-butyl (3R,4R)-4-(1-oxo-6-(5-(trifluoromethyl)-1,2,4-oxadiazol-3-yl)-1,3-dihydro-2H-isoindol-2-yl)-3-phenylpiperidine-1-carboxylate] |  |  |  | 101 | 53 | 84

Further lines, results first:

HDAC6 inhibitory rate (%) (1 μM) (HDAC6 enzyme) | HDAC1 inhibitory rate (%) (1 μM) (HDAC1 enzyme; 1 µM) | HDAC9 inhibitory rate (%) (1 μM) (HDAC9 enzyme; 1 µM) | inhibition at 1 µM (HDAC6 enzyme) [%] | inhibition at 1 µM (HDAC1 enzyme) [%] | inhibition at 1 µM (HDAC9 enzyme) [%] | Compound
99 | 50 | 91 |  |  |  | O=C1c2cc(-c3noc(C(F)(F)F)n3)ccc2CN1[C@@H]1CCOC[C@H]1c1ccccc1 (relative stereo) [Example 35, trans-2-(3-phenyltetrahydro-2H-pyran-4-yl)-6-(5-(trifluoromethyl)-1,2,4-oxadiazol-3-yl)isoindolin-1-one]
 |  |  | 98 | 52 | 85 | O=C1c2cc(-c3noc(C(F)(F)F)n3)ccc2CN1[C@@H]1CCCC[C@H]1c1ccccc1 (relative stereo) [Example 17, trans-2-(2-phenylcyclohexyl)-6-(5-(trifluoromethyl)-1,2,4-oxadiazol-3-yl)isoindolin-1-one]
 |  |  | 98 | 94 | 99 | O=C1c2cc(-c3noc(C(F)(F)F)n3)ccc2CN1C1CCNC[C@@H]1c1ccc(Cl)cc1 (stereo in doubt) [Example 51, 2-(trans-3-(4-chlorophenyl)piperidin-4-yl)-6-(5-(trifluoromethyl)-1,2,4-oxadiazol-3-yl)isoindolin-1-one]
 |  |  | 95 | 90 | 99 | Cc1ccc([C@@H]2CNCC[C@H]2N2Cc3ccc(-c4noc(C(F)(F)F)n4)cc3C2=O)cc1 (relative stereo) [Example 47, 2-(trans-3-(4-methylphenyl)piperidin-4-yl)-6-(5-(trifluoromethyl)-1,2,4-oxadiazol-3-yl)isoindolin-1-one]
 |  |  | 97 | 98 | 99 | O=C1c2cc(-c3noc(C(F)(F)F)n3)ccc2CN1[C@@H]1CCNC[C@H]1c1cccc(Cl)c1 (relative stereo) [Example 53, 2-(trans-3-(3-chlorophenyl)piperidin-4-yl)-6-(5-(trifluoromethyl)-1,2,4-oxadiazol-3-yl)isoindolin-1-one]
